Measured values: the NIST ThermoML archive (doi:10.1021/je049777o)
Several values for one entry are separate records, joined by “and”; a condition that tells them apart may be missing. Equal entries are not always repeated. ± gives the expanded uncertainty stated by the source.

Legend:
[1] = xn = mol fraction of the nth substance listed; conditions: 101.3 kPa, Liquid
[2] = 101.3 kPa, Liquid

COC(=O)OC [dimethyl carbonate] + Clc1ccccc1
[1], x1 = 1
Conditions	mass density [kg/m3]	viscosity [mPa·s]
293.15 K	1069.54 ± 0.24	0.6163 ± 0.016
298.15 K	1062.95 ± 0.23	0.5771 ± 0.016
303.15 K	1056.35 ± 0.23	0.5433 ± 0.015
313.15 K	1043.01 ± 0.21	0.482 ± 0.014
323.15 K	1029.59 ± 0.19	0.4319 ± 0.013
333.15 K	1016 ± 0.18	0.3893 ± 0.012
343.15 K	1002.32 ± 0.16	0.3527 ± 0.011

COC(=O)OC [dimethyl carbonate]
[2]
Conditions	mass density [kg/m3]	viscosity
293.15 K	1069.54 ± 0.24	0.6163 ± 0.016 mPa·s and 0.6173 ± 0.0096 mPa·s
298.15 K	1062.95 ± 0.23	0.5771 ± 0.016 mPa·s and 0.5734 ± 0.0093 mPa·s
303.15 K	1056.35 ± 0.23	0.5433 ± 0.015 mPa·s and 0.5403 ± 0.009 mPa·s
313.15 K	1043.01 ± 0.21	0.482 ± 0.014 mPa·s and 0.4807 ± 0.0086 mPa·s
323.15 K	1029.59 ± 0.19	0.4319 ± 0.013 mPa·s and 0.427 ± 0.0082 mPa·s
333.15 K	1016 ± 0.18	0.3893 ± 0.012 mPa·s
343.15 K	1002.32 ± 0.16	0.3527 ± 0.011 mPa·s

CCCCCCC [heptane]
[2]
Conditions	mass density [kg/m3]	viscosity [mPa·s]
293.15 K	687.14 ± 0.71	0.4038 ± 0.0083
298.15 K	682.91 ± 0.71	0.3831 ± 0.0082
303.15 K	678.61 ± 0.71	0.3629 ± 0.008
313.15 K	669.91 ± 0.72	0.3274 ± 0.0078
323.15 K	661.16 ± 0.73	0.298 ± 0.0076
333.15 K	652.26 ± 0.75	0.2704 ± 0.0074
343.15 K	643.31 ± 0.76	0.2487 ± 0.0072

CCCCCC [hexane] + COC(=O)OC
[1], x2 = 0
Conditions	mass density [kg/m3]	viscosity [mPa·s]
293.15 K	662 ± 0.67	0.302 ± 0.0075
298.15 K	657.44 ± 0.68	0.2886 ± 0.0074
303.15 K	652.87 ± 0.69	0.2774 ± 0.0073
313.15 K	643.55 ± 0.7	0.2504 ± 0.0072
323.15 K	634.07 ± 0.71	0.2339 ± 0.0071
333.15 K	624.39 ± 0.73	0.2114 ± 0.007

CCCCCC [hexane]
[2]
Conditions	mass density [kg/m3]	viscosity [mPa·s]
293.15 K	662 ± 0.67	0.302 ± 0.0075
298.15 K	657.44 ± 0.68	0.2886 ± 0.0074
303.15 K	652.87 ± 0.69	0.2774 ± 0.0073
313.15 K	643.55 ± 0.7	0.2504 ± 0.0072
323.15 K	634.07 ± 0.71	0.2339 ± 0.0071
333.15 K	624.39 ± 0.73	0.2114 ± 0.007

CCCCCCC [heptane] + COC(=O)OC
[1], x2 = 0
Conditions	mass density [kg/m3]	viscosity [mPa·s]
293.15 K	687.14 ± 0.71	0.4038 ± 0.0083
298.15 K	682.91 ± 0.71	0.3831 ± 0.0082
303.15 K	678.61 ± 0.71	0.3629 ± 0.008
313.15 K	669.91 ± 0.72	0.3274 ± 0.0078
323.15 K	661.16 ± 0.73	0.298 ± 0.0076
333.15 K	652.26 ± 0.75	0.2704 ± 0.0074
343.15 K	643.31 ± 0.76	0.2487 ± 0.0072

Clc1ccccc1 [chlorobenzene]
[2]
Conditions	mass density [kg/m3]	viscosity [mPa·s]
293.15 K	1106.74 ± 0.4	0.8084 ± 0.021
298.15 K	1101.33 ± 0.4	0.7422 ± 0.019
303.15 K	1095.96 ± 0.39	0.7053 ± 0.018
313.15 K	1085.06 ± 0.38	0.631 ± 0.017
323.15 K	1074.26 ± 0.36	0.5677 ± 0.015
333.15 K	1063.32 ± 0.35	0.5069 ± 0.014
343.15 K	1052.44 ± 0.34	0.4658 ± 0.013
